These are literature values, as cited in US7666442B2 (Tracie Martyn International, LLC, priority 2004, dated 2010).

Each structure is given as a SMILES string.

The conditions of data set [1]: orally at dosages above 500 mg/kg body weight in animal studies.
For data set [2] the following is noted: using only natural ingredients (botanicals, antioxidants, coffe oil and microfine zinc oxide).

Take `NCCC(=O)N[C@@H](Cc1cnc[nH]1)C(=O)O` [Carnosine, beta-alanyl-L-histidine]: in data set [1], the “Safety after oral administration” value is listed as “safe”.

As to `Cc1ncc(CO)c(CN)c1O` [Pyridoxamine, 4-aminomethyl-5-hydroxy-6-methyl-3-pyridinemethanol], the Water solubility result is recorded as “water-soluble”.

For the compound `COc1ccc(C=CC(=O)OCCC(C)C)cc1` [isoamyl-p-methoxycinnamate], the spf result in data set [2] is given as “greater than 30”.
